# Source: publication PMC6145916, “Interaction of mitochondrial fission factor with dynamin related protein 1 governs physiological mitochondrial function in vivo” (Scientific Reports, 2018)
# Where no end group is shown, it is not given here.
# How the values were obtained:
# primary cortical neurons [1] = experiment: Mitochondrial membrane potential (TMRM), primary cortical neurons; format: cell-based, rat; details: overnight treatment; n = 3, with 3 replicates
# Description: (§1) Bottom, quantification of the form factor (degree of branching) and aspect ratio (major/minor axis length). At least 10,000 mitochondrial fragments were analyzed for each condition. Mitochondrial reactive oxygen species production (MitoSox Red) (b) and membrane potential (TMRM) (c) after overnight treatment with indicated concentrations of peptide (n = 3, with 3 replicates). […] Overlay of live microscopy imaging at time 0 (green) and 150 (red) seconds. […] An estimation of the % mobile mitochondria from the Pearson coefficient of each set of images. Data are mean ± s.e.
# Following treatment, cells were washed with treatment media.
# The Cy5 filter was used to autofocus on the mitochondria plane. Nuclei were imaged with a DAPI filter and the mitoROS (MitoSox) or membrane potential (TMRM) image was acquired with a TRITC filter. […] MitoROS was calculated as the average MitoSox signal per cell. The mitochondrial membrane potential was calculated as the average TMRM signal in the mitochondrial mask.
# Mitochondrial reactive oxygen species determination […]
# and 1% penicillin-streptomycin solution (Corning, NY, USA). Primary cortical neurons were treated with increasing concentrations of peptides in NbActiv1 media. HD Patient- and adult- […]
# and without phenol red. […] After incubation
# HEPES, and without phenol red. […]
# calculated as the average MitoSox signal per cell. […]
# SH-SY5Y cells = experiment: Oxygen consumption rate, SH-SY5Y; format: cell-based, human; details: overnight treatment, XFe24 analyzer
# wild-type mice = experiment: ATP content in brain tissue; format: in vivo, mouse; details: 3 mg/Kg/day, subcutaneous osmotic pump, 8 weeks, WT mice; n = 4 mice, 2 replicates
# Text: (a) Quantification of mitochondrial Drp1 content relative to ALDH2 (a mitochondrial matrix enzyme) in the mitochondrial fraction isolated from total brain lysate of wild-type mice (Western blot shown in Fig. S3B) (n = 4 mice). (b) ATP content in brain tissue of wild-type mice (n = 4 mice, 2 replicates). (c) Representative transmission electron microscopy images of the striatum from wild-type mice. […] The first principal component represents 42% of the variation. (f) Local linear embedding dimensionality reduction and visualization of all behaviors collected weekly from TAT- (black) or P259- (purple) treated WT and TAT- (white) treated R6/2 mice over the course of 8 weeks. […] All behavior and survival tests were conducted by an experienced observer who was blinded to the treatment groups. Data are mean ± s.e.
# Five-week old R6/2 HD mice and their wild-type littermates (a total of 60 mice) were implanted subcutaneously with a 28-d Alzet osmotic pump with either P259-TAT or TAT control peptide (15 mice per group) to be delivered continuously at a rate of 3 mg/Kg/day, as previously described. All mice were implanted twice for a total of an 8-week treatment. 20 of the WT mice were implanted 3 times for a total of a 12-week treatment at 3 mg/Kg/day. […]
# (§2) To quantify mitochondrial motility, the images at time 0 and 150 seconds w ere overlaid. […]
# primary cortical neurons [2] = experiment: Mitochondrial motility, primary cortical neurons; format: cell-based, rat; details: 4 µM P259, one hour
# Description: as §1
# To quantify mitochondrial motility, the TMRM images were colored green and red at times 0 and 150 seconds, respectively. Mitochondrial motility corresponded to decreased co-localization of the two colors (Fig. 3d). […] Therefore, Mff-mediated anchoring of Drp1 on the outer mitochondrial membrane was necessary for mitochondrial motility in primary cortical neurons.
# DMI6000B inverted microscope. All mitochondria were imaged with a GFP fi lter. Then, green […]
# filter every 30 seconds for 5 minutes. The initial image was subtracted from each subsequent image to track signal change over time. […]
# GFP filter (Keyence). […] The GFP and MitoSox signals were measured in a ring around each nucleus. Average MitoSox levels were quantified in […]
# as §2
substance,measurement,setting,value
YGRKKRRQRRRGSGIIQLPEIVVV-NH2 (C-terminus assumed) [P259],mitochondrial membrane potential,primary cortical neurons [1],decreased membrane potential
same,electron flux (electron transport chain flux),"SH-SY5Y cells; 4 µM (Fig. 2f), n = 3, with at least 3 replicates",dose-dependent decline
same,basal oxygen consumption rate,"SH-SY5Y cells; indicated concentrations, 3 independent experiments",dose-dependent decline
same,decrease in ATP levels in the brain,wild-type mice,30%
same,% mobile mitochondria,"primary cortical neurons [2]; TMRM images 0 vs 150 sec, estimated from Pearson coefficient, basal approximately 37%, n = 4 control and 6 P259",~ 22%
same,decline in the proportion of mobile mitochondria,primary cortical neurons [2]; vs no peptide control,40%
